Data as given in paper PMC7588595, “Small-molecule active pharmaceutical ingredients of approved cancer therapeutics inhibit human aspartate/asparagine-β-hydroxylase” (Bioorganic & Medicinal Chemistry, 2020).
Structures can show the parent of a compound that is named as a salt. Where two headings read alike, the source gives them in different places. Starred links: 1 amine or outer side, 2 acyl side, 3 side chain; linkers in the order of their positions; H or OH if unused. Positions of bridges follow the written chain, without caps; N, C: chain ends. Non-standard residues stand in square brackets, D forms with d. Residues, ends and D or L forms follow the SMILES beside them. Chains are numbered I, II in the order given. Actinocin(9to1) = Cc1c2oc3c(C)ccc(C(=O)[*:1])c3nc-2c(C(=O)[*:2])c(N)c1=O; NMeV = CN[C@H](C(=O)O)C(C)C; Sar = CNCC(=O)O

Molecular target: T1, human AspH (His6-AspH315–758) (Homo sapiens, UniProt Q12797)
T1 construct: N-Terminally His6-tagged human AspH315–758 (His6-AspH315–758) was produced in Escherichia coli BL21 (DE3) cells; made in house; host or cells: Escherichia coli BL21 (DE3), pET-28a(+) vector
T1 sequence (Q12797 315-758): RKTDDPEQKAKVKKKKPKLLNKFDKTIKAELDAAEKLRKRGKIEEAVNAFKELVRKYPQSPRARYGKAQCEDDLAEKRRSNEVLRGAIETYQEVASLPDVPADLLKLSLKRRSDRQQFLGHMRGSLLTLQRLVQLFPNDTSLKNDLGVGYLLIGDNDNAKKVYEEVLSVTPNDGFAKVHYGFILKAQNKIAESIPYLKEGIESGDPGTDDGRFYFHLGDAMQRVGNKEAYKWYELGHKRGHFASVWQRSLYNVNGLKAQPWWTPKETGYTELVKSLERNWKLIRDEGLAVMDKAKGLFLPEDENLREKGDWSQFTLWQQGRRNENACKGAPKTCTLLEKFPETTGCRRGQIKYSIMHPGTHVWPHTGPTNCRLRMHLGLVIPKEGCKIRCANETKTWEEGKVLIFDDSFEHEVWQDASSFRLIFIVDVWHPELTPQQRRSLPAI
Assay: SPE-MS AspH inhibition assay (hFX-CP101-119 substrate hydroxylation)
Assay type: biochemical

[1] = AspH-inhibitor screening, 384-well Plate 1
[2] = AspH-inhibitor screening, 384-well Plate 1, substrate conversion
[3] = AspH-inhibitor screening, Plate 1-duplicate
[4] = AspH-inhibitor screening, Plate 1-duplicate, substrate conversion

| Molecule | Plate 1 (% conversion) [%] | Plate 1 (% inhibition) [%] | Plate 1-duplicate (% conversion) [%] | Plate 1-duplicate (% inhibition) [%] | Plate 1 (% inhibition) [1] [%] | Plate 1 (% conversion) [2] [%] | Plate 1-duplicate (% inhibition) [3] [%] | Plate 1-duplicate (% conversion) [4] [%] |
| --- | --- | --- | --- | --- | --- | --- | --- | --- |
| O=P1(N(CCCl)CCCl)NCCCO1 (stereo not shown) [Clafen (Cyclophosphamide, Endoxan)] | 48.48 | 2.76 | 50.72 | 2.67 |  |  |  |  |
| Cc1cc(C(C)Nc2ccccc2)c2nc(N3CCOCC3)cc(=O)n2c1 (stereo not shown) [TGX-221] |  |  |  |  | -1.55 | 50.47 | 0.18 | 51.95 |
| C/C=C1\NC(=O)[C@H]2CSSCC/C=C/[C@H](CC(=O)N[C@H](C(C)C)C(=O)N2)OC(=O)[C@H](C(C)C)NC1=O [Romidepsin] |  |  |  |  | 31.77 | 35.08 | 29.51 | 37.41 |
| COc1cccc2c1C(=O)c1c(O)c3c(c(O)c1C2=O)C[C@@](O)(C(=O)CO)C[C@@H]3O[C@H]1C[C@H](N)[C@H](O)[C@H](C)O1 [Doxorubicin] |  |  |  |  | -11.25 | 54.95 | -1.25 | 52.66 |
| Cc1c2oc3c(C)ccc(C(=O)N[C@@H]4C(=O)N[C@H](C(C)C)C(=O)N5CCC[C@H]5C(=O)N(C)CC(=O)N(C)[C@@H](C(C)C)C(=O)O[C@@H]4C)c3nc-2c(C(=O)N[C@@H]2C(=O)N[C@H](C(C)C)C(=O)N3CCC[C@H]3C(=O)N(C)CC(=O)N(C)[C@@H](C(C)C)C(=O)O[C@@H]2C)c(N)c1=O [Dactinomycin] (I: T[dV]P[Sar][NMeV] / II: T[dV]P[Sar][NMeV]; ester I:1-I:C, II:1-II:C; linker I:N-II:N via Actinocin(9to1)) |  |  |  |  | -0.066 | 49.78 | -9.41 | 56.71 |
| c1cc(CN2CCCNCCNCCCNCC2)ccc1CN1CCCNCCNCCCNCC1 [Plerixafor] |  |  |  |  | 9.96 | 45.15 | 5.23 | 49.45 |
| AZ 3146 |  |  |  |  | -12.15 | 55.36 | 4.56 |  |
| CC(=O)OC[C@H]1O[C@@H](n2ccc(=O)[nH]c2=O)[C@H](OC(C)=O)[C@@H]1OC(C)=O [Uridine triacetate] |  |  |  |  | 4.05 | 47.88 | 7.04 | 48.55 |
| COc1cc([C@@H]2c3cc4c(cc3[C@@H](O[C@@H]3O[C@@H]5CO[C@@H](C)O[C@H]5[C@H](O)[C@H]3O)[C@H]3COC(=O)[C@H]23)OCO4)cc(OC)c1O [Etoposide] |  |  |  |  | -0.43 | 49.95 | -2.73 | 53.40 |
| CN(C)C[C@@H]1CCn2cc(c3ccccc32)C2=C(C(=O)NC2=O)c2cn(c3ccccc23)CCO1.CS(=O)(=O)O [LY 333531 mesylate_Ruboxistaurin] |  |  |  |  | 10.44 | 44.93 | -5.64 | 54.84 |
| CC(=O)O[C@@]12CO[C@@H]1C[C@H](O)[C@@]1(C)C(=O)[C@H](O)C3=C(C)[C@@H](OC(=O)[C@H](O)[C@@H](NC(=O)OC(C)(C)C)c4ccccc4)C[C@@](O)([C@@H](OC(=O)c4ccccc4)[C@H]21)C3(C)C [Docetaxel] |  |  |  |  | -5.60 | 52.34 | 2.03 | 51.03 |
| CC(C)n1nc(-c2ccc3oc(N)nc3c2)c2c(N)ncnc21 [INK128] |  |  |  |  | 4.97 | 47.46 | 4.58 | 49.77 |
| CNC(=O)c1ccc(N2C(=S)N(c3ccc(C#N)c(C(F)(F)F)c3)C(=O)C2(C)C)cc1F [Enzalutamide] |  |  |  |  | -2.61 | 50.95 | -6.89 | 55.46 |
| CCC1=C[C@@H]2CN(C1)Cc1c([nH]c3ccccc13)[C@@](C(=O)OC)(c1cc3c(cc1OC)N(C)[C@H]1[C@@](O)(C(=O)OC)[C@H](OC(C)=O)[C@]4(CC)C=CCN5CC[C@]31[C@@H]54)C2 [Vinorelbine tartrate] |  |  |  |  | 35.58 | 33.32 | 36.10 | 34.14 |
| CC(C)n1cnc2c(NCCc3ccc(O)cc3)nc(-c3csc4ccccc34)nc21.Cl [SR1 HCl] |  |  |  |  | 33.05 | 34.49 | 43.66 | 30.39 |
| O=[N+]([O-])c1ccc2c(c1)S(=O)(=O)C=C2 [Stattic] |  |  |  |  | 9.52 | 45.35 | 9.59 | 47.29 |
| O=C(O)CCCc1ccc(N(CCCl)CCCl)cc1 [Chlorambucil] |  |  |  |  | 2.87 | 48.43 | 1.52 | 51.29 |
| COc1cc2c(N3CCN(C(=O)Nc4ccc(OC(C)C)cc4)CC3)ncnc2cc1OCCCN1CCCCC1 [Tandutinib] |  |  |  |  | -11.71 | 55.16 | -8.54 | 56.28 |
| O=C(Nc1ccncc1)C(=O)c1cn(Cc2ccc(Cl)cc2)c2ccccc12 [Indibulin] |  |  |  |  | 45.36 | 28.80 | 2.65 | 50.73 |
| COc1cc2c(cc1-c1c(C)noc1C)ncc1[nH]c(=O)n([C@H](C)c3ccccn3)c12 [I-BET151 (GSK1210151A)] |  |  |  |  | 3.78 | 48.01 | 1.98 | 51.06 |
| CC/C(=C(\c1ccc(O)cc1)c1ccc(OCCN(C)C)cc1)c1ccccc1 [4-hydroxytamoxifen] |  |  |  |  | -45.98 | 70.98 | -42.66 | 73.20 |
| Nc1ccn([C@@H]2O[C@H](CO)[C@@H](O)[C@@H]2O)c(=O)n1 [Cytarabine hydrochloride] |  |  |  |  | 2.14 | 48.76 | 3.50 | 50.30 |
| CS(=O)(=O)CCNCc1ccc(-c2ccc3ncnc(Nc4ccc(OCc5cccc(F)c5)c(Cl)c4)c3c2)o1.Cc1ccc(S(=O)(=O)O)cc1.Cc1ccc(S(=O)(=O)O)cc1 [Lapatinib, di-p-toluenesulfonate salt] | 63.38 | -29.52 | 62.65 | -21.39 |  |  |  |  |
| COc1cc([C@@H]2c3cc4c(cc3[C@@H](O[C@@H]3O[C@@H]5CO[C@@H](c6cccs6)O[C@H]5[C@H](O)[C@H]3O)[C@H]3COC(=O)[C@H]23)OCO4)cc(OC)c1O [Teniposide] |  |  |  |  | 10.91 | 44.71 | 6.57 | 48.78 |
| Nc1ccccc1NC(=O)c1ccc(CNC(=O)OCc2cccnc2)cc1 [Entinostat] |  |  |  |  | -5.93 | 52.49 | -4.09 | 54.07 |
| O=C(O)c1ccc(-c2c[nH]c3ncc(-c4ccccc4)cc23)cc1C1CCCC1 [GSK 650394] |  |  |  |  | 57.76 | 23.08 | 56.10 | 24.22 |
